Test results reported in ChEMBL document CHEMBL1201862, “PubChem BioAssay data set” (2004).
The source made the active and inactive calls.

Experiments:
[1] = target: T1, Estrogen receptor (Homo sapiens, UniProt P03372);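 also: potency for inhibiting coactivator peptide recruitment to the receptor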
T1 sequence (P03372 whole entry): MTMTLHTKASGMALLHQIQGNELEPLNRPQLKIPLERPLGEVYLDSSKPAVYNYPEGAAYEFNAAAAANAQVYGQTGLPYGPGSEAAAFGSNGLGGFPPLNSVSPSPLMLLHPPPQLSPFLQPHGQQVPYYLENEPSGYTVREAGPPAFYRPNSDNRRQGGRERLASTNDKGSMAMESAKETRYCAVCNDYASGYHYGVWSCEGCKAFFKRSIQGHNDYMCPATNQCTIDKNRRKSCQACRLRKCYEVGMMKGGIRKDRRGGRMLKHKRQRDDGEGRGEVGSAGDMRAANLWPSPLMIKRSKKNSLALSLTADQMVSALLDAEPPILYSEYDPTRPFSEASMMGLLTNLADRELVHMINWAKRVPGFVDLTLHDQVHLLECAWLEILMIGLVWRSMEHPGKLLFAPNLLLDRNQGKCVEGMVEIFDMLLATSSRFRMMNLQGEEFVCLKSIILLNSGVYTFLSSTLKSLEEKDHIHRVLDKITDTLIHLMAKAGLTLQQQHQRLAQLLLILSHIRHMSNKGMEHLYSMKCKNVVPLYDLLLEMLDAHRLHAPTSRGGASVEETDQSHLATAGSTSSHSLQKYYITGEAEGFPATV

[2] = target: Genome polyprotein (dengue virus type 2, UniProt P29990); experiment: Dengue-2 NS5 methyltransferase inhibitors, primary screen, biochemical, confirmation dose response (AID 588689); format: functional
Sequence of Genome polyprotein (P29990 2492-3391 limits assumed): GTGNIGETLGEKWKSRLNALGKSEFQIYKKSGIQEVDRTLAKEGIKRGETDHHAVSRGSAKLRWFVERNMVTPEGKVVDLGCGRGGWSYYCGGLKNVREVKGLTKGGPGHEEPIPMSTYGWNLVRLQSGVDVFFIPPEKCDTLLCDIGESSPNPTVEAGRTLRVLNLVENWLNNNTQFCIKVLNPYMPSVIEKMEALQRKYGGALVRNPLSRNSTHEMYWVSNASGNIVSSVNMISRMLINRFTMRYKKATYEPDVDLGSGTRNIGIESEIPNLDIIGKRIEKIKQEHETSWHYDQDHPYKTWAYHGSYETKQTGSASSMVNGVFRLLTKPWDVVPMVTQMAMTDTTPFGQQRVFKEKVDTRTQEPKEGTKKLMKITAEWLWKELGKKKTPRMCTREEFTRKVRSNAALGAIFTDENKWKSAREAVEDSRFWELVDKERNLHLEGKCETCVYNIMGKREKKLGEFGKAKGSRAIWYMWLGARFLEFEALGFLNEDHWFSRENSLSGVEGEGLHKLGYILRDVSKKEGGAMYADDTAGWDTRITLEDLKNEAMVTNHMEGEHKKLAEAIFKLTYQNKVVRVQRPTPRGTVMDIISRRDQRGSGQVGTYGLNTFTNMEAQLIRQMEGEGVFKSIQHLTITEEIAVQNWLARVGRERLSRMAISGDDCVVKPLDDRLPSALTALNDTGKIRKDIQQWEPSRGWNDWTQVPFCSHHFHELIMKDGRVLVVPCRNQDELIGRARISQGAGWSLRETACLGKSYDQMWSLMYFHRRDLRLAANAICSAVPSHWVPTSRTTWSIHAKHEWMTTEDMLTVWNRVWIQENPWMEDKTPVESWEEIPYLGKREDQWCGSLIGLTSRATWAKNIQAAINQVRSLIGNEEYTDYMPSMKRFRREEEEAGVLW

[3] = target: T2, 1-phosphatidylinositol 4,5-bisphosphate phosphodiesterase gamma-1 (Homo sapiens, UniProt P19174); experiment: Counterscreen for inhibitors of phospholipase C isozymes (PLC-B3): Fluorescence-based biochemical high throughput dose response assay to identify inhibitors of phospholipase C isozymes (PLC-gamma1).
T2 sequence (P19174 whole entry): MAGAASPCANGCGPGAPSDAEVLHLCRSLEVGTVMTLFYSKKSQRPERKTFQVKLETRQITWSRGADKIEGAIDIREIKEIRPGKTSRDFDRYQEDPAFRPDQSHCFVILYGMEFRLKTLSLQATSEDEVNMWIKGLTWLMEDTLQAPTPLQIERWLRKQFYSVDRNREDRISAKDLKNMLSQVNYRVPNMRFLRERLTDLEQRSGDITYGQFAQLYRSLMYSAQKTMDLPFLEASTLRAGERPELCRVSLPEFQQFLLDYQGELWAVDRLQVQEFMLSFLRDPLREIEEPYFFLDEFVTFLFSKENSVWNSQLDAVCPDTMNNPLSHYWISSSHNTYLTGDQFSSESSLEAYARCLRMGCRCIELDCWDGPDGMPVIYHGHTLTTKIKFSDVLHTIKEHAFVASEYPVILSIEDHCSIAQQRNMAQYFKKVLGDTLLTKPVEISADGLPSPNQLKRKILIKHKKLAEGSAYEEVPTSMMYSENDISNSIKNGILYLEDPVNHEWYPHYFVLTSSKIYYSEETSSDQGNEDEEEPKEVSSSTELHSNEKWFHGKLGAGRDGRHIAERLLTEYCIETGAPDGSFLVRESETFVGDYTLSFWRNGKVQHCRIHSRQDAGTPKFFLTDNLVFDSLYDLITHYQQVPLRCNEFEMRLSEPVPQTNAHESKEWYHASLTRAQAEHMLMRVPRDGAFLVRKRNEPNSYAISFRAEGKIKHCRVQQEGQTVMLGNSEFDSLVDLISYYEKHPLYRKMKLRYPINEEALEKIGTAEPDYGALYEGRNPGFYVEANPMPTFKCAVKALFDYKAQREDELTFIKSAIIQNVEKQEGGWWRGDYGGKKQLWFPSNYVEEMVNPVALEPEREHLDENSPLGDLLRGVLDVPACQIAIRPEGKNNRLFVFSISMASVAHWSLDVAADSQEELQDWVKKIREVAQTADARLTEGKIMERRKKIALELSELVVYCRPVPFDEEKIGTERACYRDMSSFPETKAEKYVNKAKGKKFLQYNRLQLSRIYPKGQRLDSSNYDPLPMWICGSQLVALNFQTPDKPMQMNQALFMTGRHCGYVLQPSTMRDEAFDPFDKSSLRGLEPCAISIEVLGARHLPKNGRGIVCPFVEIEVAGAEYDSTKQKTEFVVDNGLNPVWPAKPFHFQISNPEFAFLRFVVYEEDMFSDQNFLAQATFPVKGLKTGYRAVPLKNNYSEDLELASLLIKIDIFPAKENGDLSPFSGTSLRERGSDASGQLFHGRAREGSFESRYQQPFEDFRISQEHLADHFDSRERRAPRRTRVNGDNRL

[4] = target: T3, 1-phosphatidylinositol 4,5-bisphosphate phosphodiesterase beta-3 (Homo sapiens, UniProt Q01970); experiment: Fluorescence-based biochemical high throughput dose response assay to identify inhibitors of phospholipase C isozymes (PLC-B3).
T3 sequence (Q01970 whole entry): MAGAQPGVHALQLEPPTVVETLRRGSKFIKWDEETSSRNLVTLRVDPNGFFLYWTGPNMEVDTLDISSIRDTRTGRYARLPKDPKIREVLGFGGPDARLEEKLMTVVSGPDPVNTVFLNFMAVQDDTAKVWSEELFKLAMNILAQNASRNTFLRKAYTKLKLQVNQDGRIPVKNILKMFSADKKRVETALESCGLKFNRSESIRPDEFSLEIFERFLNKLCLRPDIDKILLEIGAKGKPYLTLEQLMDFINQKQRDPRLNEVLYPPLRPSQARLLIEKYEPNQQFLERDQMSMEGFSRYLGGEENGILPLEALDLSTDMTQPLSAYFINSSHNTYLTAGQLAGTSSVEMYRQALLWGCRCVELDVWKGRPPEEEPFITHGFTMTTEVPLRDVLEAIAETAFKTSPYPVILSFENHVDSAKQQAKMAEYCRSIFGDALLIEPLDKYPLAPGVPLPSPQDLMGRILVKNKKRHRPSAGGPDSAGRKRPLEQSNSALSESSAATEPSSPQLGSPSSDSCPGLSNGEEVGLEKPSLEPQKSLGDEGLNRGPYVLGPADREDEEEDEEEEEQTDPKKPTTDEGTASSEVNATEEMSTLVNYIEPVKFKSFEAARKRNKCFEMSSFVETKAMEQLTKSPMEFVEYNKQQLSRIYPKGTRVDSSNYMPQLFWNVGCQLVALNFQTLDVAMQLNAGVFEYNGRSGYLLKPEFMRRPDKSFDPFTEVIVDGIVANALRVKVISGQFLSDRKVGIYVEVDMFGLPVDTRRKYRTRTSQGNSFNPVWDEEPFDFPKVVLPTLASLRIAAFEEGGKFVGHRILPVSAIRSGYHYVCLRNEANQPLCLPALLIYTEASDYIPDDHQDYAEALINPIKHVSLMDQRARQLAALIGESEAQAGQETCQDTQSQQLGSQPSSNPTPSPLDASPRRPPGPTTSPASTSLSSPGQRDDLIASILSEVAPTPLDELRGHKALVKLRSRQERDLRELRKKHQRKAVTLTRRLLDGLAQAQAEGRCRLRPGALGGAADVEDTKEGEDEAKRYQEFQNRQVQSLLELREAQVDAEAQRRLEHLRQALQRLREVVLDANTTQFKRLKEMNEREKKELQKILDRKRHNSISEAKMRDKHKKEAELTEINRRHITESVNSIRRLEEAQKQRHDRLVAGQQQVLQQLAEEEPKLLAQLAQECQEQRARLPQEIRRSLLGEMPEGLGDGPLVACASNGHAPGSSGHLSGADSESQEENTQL

[5] = target: T4, Bcl-2-related protein A1 (Mus musculus, UniProt Q07440); experiment: Bfl-1 binding inhibitors, SAR follow-up, biochemical, fluorescence polarization (AID 1070)
T4 sequence (Q07440 whole entry): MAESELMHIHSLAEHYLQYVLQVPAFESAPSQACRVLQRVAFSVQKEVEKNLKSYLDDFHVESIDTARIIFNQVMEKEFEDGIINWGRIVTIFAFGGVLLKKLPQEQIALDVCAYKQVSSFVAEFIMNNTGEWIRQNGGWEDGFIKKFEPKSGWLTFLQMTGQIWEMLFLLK

[6] = target: T4, Bcl-2-related protein A1; experiment: Bfl-1 inhibitors blocking BH3 peptide binding, confirmation, biochemical, TR-FRET, mouse Bfl-1 (AID 621);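 also: TR-FRET binding of GST-Bfl-1 to FITC-labelled Bid peptide via terbium antibody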
[7] = target: Glyceraldehyde-3-phosphate dehydrogenase (Homo sapiens, UniProt P04406)
Sequence of Glyceraldehyde-3-phosphate dehydrogenase (P04406 whole entry): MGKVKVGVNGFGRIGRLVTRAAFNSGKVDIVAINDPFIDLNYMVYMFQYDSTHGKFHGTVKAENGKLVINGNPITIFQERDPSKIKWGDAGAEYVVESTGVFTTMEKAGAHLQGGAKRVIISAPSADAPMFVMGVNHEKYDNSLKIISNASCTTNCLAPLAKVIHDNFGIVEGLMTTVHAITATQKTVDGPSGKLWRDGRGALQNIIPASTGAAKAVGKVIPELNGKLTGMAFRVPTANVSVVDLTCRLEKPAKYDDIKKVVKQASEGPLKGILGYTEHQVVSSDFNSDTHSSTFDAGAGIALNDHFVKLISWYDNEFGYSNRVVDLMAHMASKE

[8] = HEp-2 cell cytotoxicity, dose response, cytotoxicity control for RSV inhibitor project, HTS (AID 2410); format: functional; settings: human respiratory syncytial virus
[9] = cells
[10] = target: T5, Carboxy-terminal domain RNA polymerase II polypeptide A small phosphatase 1 (Homo sapiens, UniProt Q9GZU7); experiment: inhibitors of CTDSP1, concentration-response testing, biochemical assay, absorbance-based, actives from ultra-high-throughput screening (AID 540297); format: functional
T5 sequence (Q9GZU7 whole entry): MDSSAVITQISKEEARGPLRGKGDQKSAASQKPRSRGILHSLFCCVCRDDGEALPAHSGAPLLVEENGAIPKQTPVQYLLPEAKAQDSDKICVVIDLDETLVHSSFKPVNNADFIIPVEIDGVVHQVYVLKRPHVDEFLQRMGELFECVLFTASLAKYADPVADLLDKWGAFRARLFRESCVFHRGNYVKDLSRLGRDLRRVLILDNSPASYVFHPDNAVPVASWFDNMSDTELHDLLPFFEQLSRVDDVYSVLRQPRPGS

[11] = target: NS3 (Hepatitis C virus, UniProt A3EZJ3); experiment: PubChem AID 2173; design: species or system Hepacivirus hominis
Sequence of NS3 (A3EZJ3 whole entry): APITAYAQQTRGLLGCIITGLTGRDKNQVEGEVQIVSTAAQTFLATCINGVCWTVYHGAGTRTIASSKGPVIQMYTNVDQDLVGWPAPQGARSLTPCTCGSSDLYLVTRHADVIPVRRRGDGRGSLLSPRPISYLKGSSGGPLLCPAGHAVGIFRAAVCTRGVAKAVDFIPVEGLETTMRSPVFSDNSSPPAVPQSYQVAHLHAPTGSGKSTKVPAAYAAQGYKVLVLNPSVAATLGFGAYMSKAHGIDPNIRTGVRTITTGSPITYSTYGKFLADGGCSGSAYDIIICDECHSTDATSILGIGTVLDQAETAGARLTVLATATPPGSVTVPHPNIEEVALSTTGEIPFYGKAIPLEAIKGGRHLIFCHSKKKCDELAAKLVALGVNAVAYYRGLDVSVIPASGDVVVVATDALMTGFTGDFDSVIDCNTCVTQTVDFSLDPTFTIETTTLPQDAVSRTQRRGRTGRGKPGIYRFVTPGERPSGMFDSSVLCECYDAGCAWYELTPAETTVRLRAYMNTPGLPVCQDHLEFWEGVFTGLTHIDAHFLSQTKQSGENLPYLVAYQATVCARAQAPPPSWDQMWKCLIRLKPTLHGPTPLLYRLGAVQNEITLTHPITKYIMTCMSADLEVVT

[12] = target: G-protein coupled receptor 55 (Homo sapiens, UniProt Q9Y2T6); experiment: GPR55 antagonists blocking LPI-driven arrestin recruitment, primary screen, imaging, U2OS, beta-arrestin-GFP, LPI agonist (AID 2013); format: functional;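 also: antagonist potency measured as reduced agonist-driven arrestin aggregation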
Sequence of G-protein coupled receptor 55 (Q9Y2T6 whole entry): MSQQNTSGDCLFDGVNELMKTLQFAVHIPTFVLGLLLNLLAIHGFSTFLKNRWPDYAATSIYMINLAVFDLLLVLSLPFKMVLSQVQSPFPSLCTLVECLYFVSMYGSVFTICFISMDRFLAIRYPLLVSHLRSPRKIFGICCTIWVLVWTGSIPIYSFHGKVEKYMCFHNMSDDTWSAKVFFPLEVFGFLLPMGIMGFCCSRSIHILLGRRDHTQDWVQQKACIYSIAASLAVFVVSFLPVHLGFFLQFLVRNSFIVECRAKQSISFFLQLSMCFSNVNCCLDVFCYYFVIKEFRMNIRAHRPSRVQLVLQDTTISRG

[13] = target: Eukaryotic translation initiation factor 4E (Mus musculus, UniProt P63073); experiment: eIF4E–eIF4G protein interaction inhibitors, dose response, biochemical, TR-FRET (AID 855); format: functional;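 also: potency for disrupting eIF4E binding to eIF4GI seen as loss of FRET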
Sequence of Eukaryotic translation initiation factor 4E (P63073 whole entry): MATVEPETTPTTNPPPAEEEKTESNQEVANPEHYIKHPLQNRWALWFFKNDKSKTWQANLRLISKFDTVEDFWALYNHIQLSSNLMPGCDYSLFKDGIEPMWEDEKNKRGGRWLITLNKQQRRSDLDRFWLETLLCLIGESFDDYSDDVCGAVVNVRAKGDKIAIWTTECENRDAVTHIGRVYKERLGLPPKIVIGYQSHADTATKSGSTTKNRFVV

[14] = target: T6, Mannose-6-phosphate isomerase (Homo sapiens, UniProt P34949); experiment: human PMI inhibitors, high substrate, primary screen, biochemical, fluorescence intensity, high mannose 6-phosphate (AID 1220)
T6 sequence (P34949 whole entry): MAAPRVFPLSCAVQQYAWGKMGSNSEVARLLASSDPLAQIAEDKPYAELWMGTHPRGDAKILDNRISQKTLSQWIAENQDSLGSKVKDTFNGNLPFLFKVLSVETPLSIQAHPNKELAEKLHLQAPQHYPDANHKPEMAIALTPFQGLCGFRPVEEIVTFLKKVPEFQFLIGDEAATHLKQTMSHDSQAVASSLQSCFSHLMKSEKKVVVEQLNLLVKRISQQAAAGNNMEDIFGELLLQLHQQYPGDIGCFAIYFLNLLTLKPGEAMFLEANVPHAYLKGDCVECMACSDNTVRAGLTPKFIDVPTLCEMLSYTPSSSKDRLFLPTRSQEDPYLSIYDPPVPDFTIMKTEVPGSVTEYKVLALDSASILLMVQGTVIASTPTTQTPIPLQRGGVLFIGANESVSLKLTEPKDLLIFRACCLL

[15] = target: Estrogen receptor beta (Homo sapiens, UniProt Q92731); experiment: ERβ–SRC-3 coactivator interaction inhibitors, confirmation, orthogonal assay, biochemical, ELISA, streptavidin-HRP readout (AID 1060)
Sequence of Estrogen receptor beta (Q92731 whole entry): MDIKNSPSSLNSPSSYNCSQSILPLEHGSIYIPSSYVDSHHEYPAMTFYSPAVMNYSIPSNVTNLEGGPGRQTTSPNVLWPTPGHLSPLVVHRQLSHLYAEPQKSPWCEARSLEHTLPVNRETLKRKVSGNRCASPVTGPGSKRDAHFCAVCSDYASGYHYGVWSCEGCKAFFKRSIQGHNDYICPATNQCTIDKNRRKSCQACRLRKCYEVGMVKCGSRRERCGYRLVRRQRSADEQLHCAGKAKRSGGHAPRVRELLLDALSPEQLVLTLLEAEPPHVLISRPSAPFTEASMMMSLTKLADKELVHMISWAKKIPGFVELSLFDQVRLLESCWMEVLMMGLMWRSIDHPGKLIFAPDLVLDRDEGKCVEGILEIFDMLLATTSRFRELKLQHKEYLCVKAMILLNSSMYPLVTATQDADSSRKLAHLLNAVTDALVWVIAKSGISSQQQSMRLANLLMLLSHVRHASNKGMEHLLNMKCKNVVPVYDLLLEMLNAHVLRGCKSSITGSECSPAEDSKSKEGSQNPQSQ

## C=CCn1c(=O)[nH]c2cc(C(=O)N3CCN(c4ccc(C(C)=O)cc4)CC3)ccc2c1=O
[1]
  IC50: > 50 µM (not active)

## COc1cc(Cl)cc(C(c2c(C(=O)O)[nH]c3ccccc23)c2c(C(=O)O)[nH]c3ccccc23)c1O
[2]
  IC50: 16.9 µM (active)
[3]
  IC50: 54 µM (inactive)
[4]
  IC50: > 122 µM (inactive)

## O=C1C(Cl)=C(N2CCN(CCNCc3ccccn3)CC2)C(=O)N1c1ccc(Cl)c(Cl)c1
[5]
  IC50: 16.3 µM (active)
[6]
  IC50: 8.14 µM (active)
[7]
  IC50: > 100 µM (not active)

## CN1CCN(C2=C(Cl)C(=O)N(c3c(Cl)cccc3Cl)C2=O)CC1
[5]
  IC50: 13.4 µM (active)
[6]
  IC50: 3.72 µM (active)
[7]
  IC50: > 100 µM (not active)

## O=C(O)c1ccccc1Nc1ccc(OC(F)F)cc1
[8]
  CC50: 23.8 µM (active)
[9]
  IC50: 40.9 µM (active)

## O=C(CSc1nc(-c2ccc(F)cc2)cs1)NC(=O)NCc1ccco1
[10]
  IC50: 18.8 µM (active)
[1]
  IC50: > 50 µM (not active)

## COC(=O)c1cc(NC2c3ccccc3C(=O)N2c2ccc(Cl)cn2)cc(C(=O)OC)c1 (centres undefined)
[1]
  IC50: > 50 µM (not active)

## OCCC1CN(Cc2cccn2-c2nccs2)CCN1CCc1ccccc1 (centres undefined)
[9]
  IC50: 30.3 µM (active)

## Cc1cccc(N2C(=O)C(O)=C(C(=O)c3cccs3)C2c2cccc(Oc3ccccc3)c2)n1 (centres undefined)
[11]
  IC50: 3.02 µM (active)

## CSc1nc(N)c(C(=O)NC2CCCCC2)s1
[3]
  IC50: > 123 µM (inactive)
[4]
  IC50: > 123 µM (inactive)

## O=C(Nc1ccccc1Cl)C(Cl)C(=O)c1ccccc1 (centres undefined)
[12]
  IC50: 11.2 µM (inactive)

## CCc1cccc(NC(=O)CN(c2ccc(OC)cc2)S(=O)(=O)c2c(C)n[nH]c2C)c1
[3]
  IC50: > 123 µM (inactive)
[4]
  IC50: > 123 µM (inactive)

## c1ccc2[nH]c(SN3CCOCC3)nc2c1
[13]
  IC50: 27.5 µM (active)
[14]
  IC50: > 50 µM (not active)

## O=C(Nc1ccc(F)cc1F)c1noc2c1CCC2
[15]
  IC50: > 50 µM (not active)

## Cc1sc2nc(C3CC3)nc(SCC(=O)N3c4ccccc4CC3C)c2c1C (centres undefined)
[8]
  CC50: 7.61 µM (active)
[9]
  IC50: 3.98 µM (active)

## N#Cc1c(NC(=O)CN2CCN(c3ccccc3)CC2)sc2c1CCC2
[15]
  IC50: 44.5 µM (not active)

## O=C1C(Cl)=C(Cl)C(=O)N1c1cccc([N+](=O)[O-])c1
[5]
  IC50: 11.9 µM (active)
[6]
  IC50: 16.4 µM (active)
[7]
  IC50: > 100 µM (not active)

## Cc1ccc(C23CC4CC(CC(C(=O)NCC(=O)O)(C4)C2)C3)cc1
[3]
  IC50: > 122 µM (inactive)
[4]
  IC50: > 122 µM (inactive)

## COc1ccc(-n2c(SCC(=O)/C(C#N)=C(\C)N)nc3ccccc3c2=O)cc1OC
[9]
  IC50: 2.62 µM (active)
